Patent publication US20150164901A1, “COMPOUNDS, COMPOSITIONS AND METHODS FOR TREATING OR PREVENTING NEURODEGENERATIVE DISORDERS” (President and Fellows of Harvard College, priority 2012, published 2015)

Tests used:
[1] = tested on: human motor neurons; assay: SMN expression distribution in human motor neurons treated with Trichostatin A (FIG. 14); format: cell-based; conditions: compared to a control
[2] = tested on: SMN protein; assay: SMN-specific antibody staining of SMA patient and parent fibroblasts (FIG. 2C); format: cell-based; conditions: human fibroblasts derived from SMA patients and their parents
Text: FIG. 2A is a Western blot analysis showing the levels of SMN in cells expressing wild-type SMN and the dominant negative form of Cullin1 protein. […] FIGS. 2D and 2E are dose response curves of nuclear (FIG. 2D) and cytoplasmic (FIG. 2E) SMN levels in SMA patient and parent fibroblasts treated with MLN4924 at the indicated time points. The error bars in FIGS. 2D and 2B indicate ±S.E.M. SMN levels are normalized to DMSO control for each cell line at each time point.

[3] = tested on: SMN; assay: Western blot of SMN in lysates of motor neuron cultures (FIG. 6A-6B); format: cell-based; conditions: treated for 3 days, DMSO as control
[4] = tested on: SMN transcript; assay: Quantitative RT-PCR of SMN transcript in motor neuron cultures (FIG. 6C); format: cell-based; conditions: compared to control
[5] = tested on: SMN; assay: Immunocytochemical analysis of SMN in motor neurons derived from mouse embryonic stem cells (FIG. 6D-6G); format: cell-based
Text: FIGS. 6B and 6C are bar graphs quantifying the results in FIG. 6A. […] SMN is shown in red and GFP driven by the motor neuron specific promoter hb9 is shown in green. […] High SMN expressor is defined as those motor neurons that harbor SMN levels greater than the top 10th percentile as defined in the DMSO control. Error bars indicate ±S.E.M.

[6] = tested on: motor neurons derived from ES cells; assay: Survival of ES cell-derived hb9-GFP motor neurons, time-course imaging (FIG. 7); format: cell-based, mouse
Experimental: FIG. 7A is a line graph showing the results of a time-course analysis of motor neurons derived from ES cells expressing GFP under the motor neuron specific hb9 promoter performed with imaging every 6 hours for a 7 day period. […] The error bars indicate ±S.E.M.

[7] = tested on: hb9_RFP motor neurons; assay: SMN knockdown (shRNA lentivirus) induced motor neuron death (FIG. 8A-8B); format: cell-based; conditions: SMN knockdown using shRNA lentivirus in hb9_RFP motor neurons
Text: (§1) MLN4924 is able to reverse the effects of SMN knockdown on motor neuron death. Representative images are shown.

[8] = tested on: SMN; assay: Histogram analysis of SMN expression in motor neurons under SMN RNAi (FIG. 8C); format: cell-based
Text: as §1

[9] = tested on: SMN-deficient motor neurons; assay: Survival of SMA-like mouse motor neurons derived from ES cells of A2 mice (FIG. 9B); format: cell-based; conditions: A2 mouse ES-derived motor neurons (no mSMN, two copies of hSMN2), treated four days
Experimental: (§2) FIG. 9A are images of immunostains of motor neurons derived from the ES-cells of A2 mice that lack a functional copy of mSMN but are supplemented with two copies of hSMN2 and thus are deficient but not completely lacking SMN protein were treated with MLN4924 for four days, SMN is shown in red and the hb9 promoter driven-GFP is shown in green. […] The error bars indicate ±S.E.M.

[10] = tested on: SMN; assay: SMN immunostaining in SMA-like mouse motor neurons (FIG. 9C-9D); format: cell-based; conditions: A2 mouse ES-derived motor neurons, treated four days
Experimental: as §2

[11] = tested on: SMN-deficient human motor neurons; assay: Survival of human motor neurons derived from SMA patient iPS cells (FIG. 10C, 10E); format: cell-based; conditions: SMA Type II (1-51) and SMA Type I iPS-derived motor neurons on glia with Ara C, 7 days
Text: (§3) Representative images are shown for Type II motor neurons. SMN is shown in red, the motor neuron marker islet 1 is shown in green, and the nuclear marker Hoechst is shown in blue. […] Error bars indicate ±S.E.M.

[12] = tested on: SMN; assay: SMN immunostaining in human motor neurons derived from SMA patient iPS cells (FIG. 10B, 10D, 10F); format: cell-based; conditions: SMA Type II (1-51) and SMA Type I iPS-derived motor neurons on glia with Ara C, 7 days
Text: as §3

[13] = tested on: human motor neurons derived from ALS patient iPS cells; assay: Survival of human motor neurons derived from wild-type and ALS patient ES or iPS cells (FIG. 11); format: cell-based; conditions: wild-type (HUES3, 18a) and ALS patient (47a) lines on glia, treated 14 days after 7 days in culture
Text: FIG. 11A are immune stains of motor neurons derived from human wild-type (HUES3, 18a) and ALS patient (47a) ES or iPS cells. […] Representative images are shown for the Hues3 line which expresses GFP under the hb9 promoter shown is green, human nuclear antigen (hNA) shown in pink, and the nuclear marker Hoechst is shown in blue. […] Error bars indicate ±S.E.M.

[14] = tested on: Brn2+ neurons; assay: Survival of Brn2+ neurons (FIG. 13); format: cell-based; conditions: compared to DMSO control
[15] = tested on: SMN; assay: SMN levels in wild type and patient iPS-derived motor neurons (FIG. 16); format: cell-based, human; conditions: motor neurons BJ RIPS (WT), A19 (C9 ORF), 27B (SOD1), 1-51N (SMA type II)
[16] = tested on: motor neurons; assay: Survival of wild type and ALS patient motor neurons (FIG. 17); format: cell-based, human; conditions: BJ RIPS (WT), 18A (WT), 27B (SOD1), 31D (TDP43), A19 (C9ORF)
[17] = tested on: Gem counts; assay: Gem counts in wild type and ALS patient motor neurons (FIG. 18); format: cell-based, human; conditions: motor neurons 18A (WT), A19 (C9 ORF), 31D (TDP43), 27B (SOD1)
[18] = tested on: SMN; assay: SMN in human motor neurons (summary of data); format: cell-based; conditions: human MNs
Text: (§4) As shown herein, MLN increases SMN in human MNs, both in measures of average SMN and # of high SMN expressors. […] The effect on proliferation can be dissociated, for example, by using AraC in protocols for differentiation of cells into motor neurons.

[19] = tested on: human motor neurons; assay: Motor neuron survival in human motor neurons (summary of data); format: cell-based
Text: as §4

[20] = tested on: proliferation in the culture; assay: Proliferation in motor neuron cultures; format: cell-based
Text: as §4

CC(/C=C/C(=O)NO)=C\[C@@H](C)C(=O)c1ccc(N(C)C)cc1 [Trichostatin A]
number of low SMN expressing motor neurons [1]: selectively reduces

NS(=O)(=O)OC[C@@H]1C[C@@H](n2ccc3c(N[C@H]4CCc5ccccc54)ncnc32)C[C@@H]1O [MLN4924, ((1S,2S,4R)-4-(4-(((S)-2,3-dihydro-1H-inden-1-yl)amino)-7H-pyrrolo[2,3-d]pyrimidin-7-yl)-2-hydroxycyclopentyl)methyl sulfamate]
SMN protein (SMN-specific antibody staining) [2]: stabilization of SMN protein
SMN levels (Western blot) [3]: significantly increased
SMN transcript levels (quantitative RT-PCR) [4]: not significantly affected
number of high SMN expressing motor neurons ([5]; high SMN expressor = SMN levels greater than the top 10th percentile of DMSO control): dose-dependent effect
amount of low SMN expressors (histogram analysis) ([5]; mouse ES-derived motor neurons): without affecting
number of motor neurons with higher levels of SMN expression (histogram analysis) ([5]; mouse ES-derived motor neurons): increases
average intensity of SMN ([5]; mouse ES-derived motor neurons, treated at plating, fixed four days later, increasing levels of MLN4924): significantly increases in a dose-dependent manner
motor neuron survival (time-course analysis) ([6]; imaging every 6 hours for a 7 day period): significantly increases
motor neuron survival (dose response) ([6]; mouse-ES derived motor neurons): dose-dependent significant increase
effect of SMN RNAi on inducing motor neuron death [7]: significantly inhibits
number of high SMN expressing motor neurons [8]: increases
number of surviving motor neurons [9]: significantly increases
SMN levels [10]: significantly increases
number of high SMN expressing motor neurons [10]: significantly increases
number of surviving motor neurons [11]: significantly increases
SMN levels [12]: significantly increases
number of high SMN expressing motor neurons [12]: significantly increases
number of surviving motor neurons [13]: significantly increases
survival of Brn2+ neurons [14]: increases survival
SMN levels [15]: increases SMN levels
survival of motor neurons [16]: increases the survival
Gem counts [17]: increases Gem counts
# of high SMN expressors [18]: increases
average SMN [18]: increases
survival of motor neurons derived from ALS patients and their parents [19]: promotes survival
survival of motor neurons derived from SMA patients and their parents [19]: promotes survival
motor neuron survival ([19]; human motor neurons): promote motor neuron survival
MN survival, preliminary results ([19]; preliminary, believed to depend on the amount of proliferation in the culture): variable
proliferation [20]: inhibits proliferation
